Values after ≈ are worked out from the molar mass of the structure shown.
Experiments:
[1] = Solubility of organic compounds in supporting electrolyte at room temperature; type: physicochemical; settings: for solubility: thermodynamic from solid
Text: The last recorded amount was recognized as the solubility of the organics.

[2] = Cyclic voltammetry in three-electrode cell (glassy carbon / Pt foil / Ag wire); type: physicochemical
Text: FIGS. 2a and 2b compare cyclic voltammetry curves of 0.1 M 2-methoxyhydroquinone in pure water and other aqueous ionic liquid, aqueous lithium salt (molality: 10 m), with and without the addition of 1 M HCl. Potential sweep rate: 50 mV s^−1. Working electrode: glassy carbon; Counter electrode: Pt foil; Reference electrode: Ag wire.
FIG. 5a depicts the chemical structure of 2-[(2,5-dihydroxyphenyl)sulfanyl]ethan-1-aminium chloride. FIGS. 5b and 5c show the cyclic voltammetry curves of 0.1 M 2-[(2,5-dihydroxyphenyl) sulfanyl]ethan-1-amonium chloride in pure water and in 1 M HCl. Potential sweep rate: 20 mV s^−1. Working electrode: glassy carbon; Counter electrode: Pt foil; Reference electrode: Ag wire.
FIGS. 6a and 6b compare the cyclic voltammetry curves of 0.1 M 2-[(2,5-dihydroxyphenyl) sulfanyl]ethan-1-amonium chloride in concentrated LiTFSI and BMImCl without and with the addition of 1 M HCl. Potential sweep rate: 20 mV s^−1. Working electrode: glassy carbon; Counter electrode: Pt foil; Reference electrode: Ag wire.
CV measurements were performed in a three-electrode cell consisting of a glassy carbon rod working electrode, a platinum foil counter electrode and a silver wire quasi-reference electrode. CV measurements of 2-methoxyhydroquinone in water (FIG. 2a) and different aqueous ionic liquids and salt (FIG. 2b) were performed.
For the CV measurement in water, KCl was added as supporting salt. […] The average redox potential in water is 0.27 V vs. Ag but with large peak separation of 0.64 V (FIG. 2a).

[3] = 10 m BMImCl-H2O, aqueous with cosolvent or surfactant or cyclodextrin, 10 m BMImCl-H2O, a: without additive
[4] = 10 m LiTFSI-H2O, aqueous with cosolvent or surfactant or cyclodextrin, 10 m LiTFSI-H2O, a: without additive
[5] = 10 m LiTFSI-H2O, aqueous with cosolvent or surfactant or cyclodextrin, LiTFSI—H2O (10 m), neutral, no additive
[6] = 10 m TBACl-H2O, aqueous with cosolvent or surfactant or cyclodextrin, 10 m TBACl-H2O, a: without additive
[7] = water, H2O, a: without additive
[8] = 10 m BMImCl-H2O, aqueous with cosolvent or surfactant or cyclodextrin, BMImCl—H2O (10 m / concentrated), neutral, no additive
[9] = 0.1 M in BMImCl—H2O, 20 mV s^−1
[10] = 0.1 M in LiTFSI—H2O, 20 mV s^−1
[11] = 0.1 M in 10 m BMImCl—H2O, 50 mV s^−1
[12] = 0.1 M in 10 m LiTFSI—H2O, 50 mV s^−1
[13] = 0.1 M in 10 m TBACl—H2O, 50 mV s^−1
[14] = 0.1 M in water, KCl supporting salt, 50 mV s^−1
[15] = BMImCl—H2O, acidic conditions (1 M HCl)
[16] = LiTFSI—H2O, acidic conditions (1 M HCl)
[17] = TBACl—H2O, acidic conditions (1 M HCl)
[18] = water, acidic conditions (1 M HCl)

Work on `COc1cc(O)cc(OC)c1O` [2,6-dimethoxyhydroquinone] yielded a solubility ([1]; 10 m BMImCl-H2O with 1 M HCl, aqueous with cosolvent or surfactant or cyclodextrin, 10 m BMImCl-H2O, b: with 1 M HCl) of under 100 mM, a solubility [1, 3] of under 100 mM and a solubility ([1]; 10 m LiTFSI-H2O with 1 M HCl, aqueous with cosolvent or surfactant or cyclodextrin, 10 m LiTFSI-H2O, b: with 1 M HCl) of 500 mM (≈ 85.1 mg/mL). The solubility [1, 4] was 700 mM (≈ 119 mg/mL), the solubility [1, 5] was 700 mM (≈ 119 mg/mL) and the solubility ([1]; 10 m TBACl-H2O with 1 M HCl, aqueous with cosolvent or surfactant or cyclodextrin, 10 m TBACl-H2O, b: with 1 M HCl) was 100 mM (≈ 17 mg/mL). For the same compound, the solubility [1, 6] was 200 mM (≈ 34 mg/mL), the “Solubility (in words)” value ([1]; BMImCl—H2O) was “limited” and the “Solubility (in words)” value ([1]; TBACl—H2O) was “limited”. For the same compound, the solubility ([1]; acidic LiTFSI-H2O, aqueous with cosolvent or surfactant or cyclodextrin, acidic LiTFSI—H2O) was 500 mM (≈ 85.1 mg/mL), the “Solubility (in words)” value ([1]; water) was “insoluble” and the solubility ([1]; water with 1 M HCl, aqueous buffer, H2O, b: with 1 M HCl) was under 100 mM. The solubility [1, 7] was under 100 mM.
With `Cl.NCCSc1cc(O)ccc1O` [2-[(2,5-dihydroxyphenyl)sulfanyl]ethan-1-aminium chloride] the solubility [1, 8] was 1200 mM, the solubility ([1]; acidic BMImCl-H2O, aqueous with cosolvent or surfactant or cyclodextrin, acidic BMImCl—H2O) was 900 mM and the solubility ([1]; pure water) was 2000 mM. The “average oxidation and reduction potential” value ([2]; 0.1 M in BMImCl—H2O with addition of HCl (1 M), 20 mV s^−1) was 0.61 V, the “average oxidation and reduction potential” value [2, 9] was 0.50 V vs. Ag and the peak separation [2, 9] was 0.61 V. For the same compound, the “reduction of peak separation on addition of HCl” value ([2]; 0.1 M in BMImCl—H2O, with vs. without HCl (1 M)) was 0.07 V, the oxidation peak [2, 10] was 0.70 V vs. Ag and the reduction peak [2, 10] was 0.08 V vs. Ag. The redox reversibility ([2]; 0.1 M in pure water and in 1 M HCl, 20 mV s^−1) was “poor redox reversibility”, the stability and reversibility ([2]; in aqueous ionic liquids or lithium salt) was “excellent stability and reversibility” and the “chemical and electrochemical stability” value ([2]; in water) was “chemically and electrochemically instable”.
In the case of `CC[N+](CC)(CC)Cc1ccc2c(c1)C(=O)c1ccccc1C2=O.[Br-]` [2-methanaminium-N,N,N-triethyl-9,10-anthraquinone bromide], the “Solubility (in words)” value ([1]; 5 m LiTFSI—H2O) is reported as “poor”, the solubility [1, 3] is reported as under 100 mM and the solubility ([1]; 10 m LiTFSI with triethanolamine, aqueous with cosolvent or surfactant or cyclodextrin, 10 m LiTFSI with 0.3 g triethanolamine per milliliter) is reported as 300 mM. It also gave a solubility [1, 4] of 500 mM, a solubility [1, 5] of 500 mM and a solubility ([1]; 10 m TBACl-H2O with triethanolamine, aqueous with cosolvent or surfactant or cyclodextrin, 10 m TBACl-H2O, c: with 0.3 g triethanolamine per mL solvent) of under 100 mM. The solubility [1, 6] was under 100 mM, the “Solubility (in words)” value ([1]; 15 m LiTFSI—H2O) was “soluble” and the solubility ([1]; supporting electrolyte, aqueous with cosolvent or surfactant or cyclodextrin, 10 m BMImCl-H2O, c: with 0.3 g triethanolamine per mL solvent) was under 100 mM. It also gave a solubility ([1]; supporting electrolyte, aqueous with cosolvent or surfactant or cyclodextrin, 10 m LiTFSI-H2O, c: with 0.3 g triethanolamine per mL solvent) of 300 mM, a solubility ([1]; supporting electrolyte, aqueous with cosolvent or surfactant or cyclodextrin, H2O, c: with 0.3 g triethanolamine per mL solvent) of under 100 mM and a solubility [1, 7] of under 100 mM.
`COc1cc(O)ccc1O` [2-methoxyhydroquinone] gave a solubility [1, 8] of 6000 mM (≈ 841 mg/mL), a solubility [1, 5] of 4200 mM (≈ 589 mg/mL) and a solubility ([1]; pure water, water) of 1800 mM (≈ 252 mg/mL). The average redox potential [2, 11] was 0.51 V vs. Ag, the peak separation [2, 11] was 0.53 V and the average redox potential [2, 12] was 0.38 V vs. Ag. For the same compound, the peak separation [2, 12] was 0.48 V, the average redox potential [2, 13] was 0.54 V vs. Ag and the “polarization (peak separation)” value [2, 13] was 0.87 V. It also gave an average redox potential [2, 14] of 0.27 V vs. Ag, a peak separation [2, 14] of 0.64 V and a peak separation ([2]; 10 m BMImCl—H2O with 1 M H3PO4) of 0.42 V. For the same compound, the average redox potential ([2]; 10 m BMImCl—H2O with H3PO4 from 1 M to 3 M) was 0.50 V vs. Ag, the peak separation [2, 15] was 0.30 V and the redox potential [2, 15] was 0.58 V vs. Ag. It also gave a peak separation [2, 16] of 0.38 V, a redox potential [2, 16] of 0.55 V vs. Ag and a peak separation [2, 17] of 0.54 V. The redox potential [2, 17] was 0.58 V vs. Ag, the peak separation [2, 18] was 0.40 V and the redox potential [2, 18] was 0.35 V vs. Ag.
`COc1cc(C=O)ccc1O` [vanillin, Vanillin] showed a solubility [1, 3] of 4000 mM (≈ 609 mg/mL), a solubility [1, 8] of 4000 mM (≈ 609 mg/mL) and a solubility [1, 4] of 4000 mM (≈ 609 mg/mL). For the same compound, the solubility [1, 5] was 4000 mM (≈ 609 mg/mL), the solubility [1, 6] was 4000 mM (≈ 609 mg/mL) and the solubility ([1]; TBACl-H2O, aqueous with cosolvent or surfactant or cyclodextrin, TBACl—H2O) was 4000 mM (≈ 609 mg/mL). The “Solubility (in words)” value ([1]; water) was “slightly soluble” and the solubility [1, 7] was under 100 mM.
